Test results from ChEMBL document CHEMBL5120836, “Discovery of novel 7,8-dihydropteridine-6(5H)-one-based DNA-PK inhibitors as potential anticancer agents via scaffold hopping strategy” (Eur J Med Chem, 2022).
Values after ≈ are worked out from the molar mass of the structure shown. Blank lines part the entries; values can stand above or below the compound they belong to. Active and inactive are the calls of the source. The rule behind the calls is not given here.

How the values were obtained:
[1] = biological target: DNA-dependent protein kinase catalytic subunit (Homo sapiens, UniProt P78527); test: Inhibition of human native full length DNA-PK by ADP-Glo assay
HCT-116 [2] = test: Induction of apoptosis in human HCT-116 cells assessed as early apoptotic cells at 1 uM incubated for 24 hrs in presence of 100 nM doxorubicin by AnnexinV-FITC/PI staining based flow cytometry (reference value: 3.04%); format: functional
HCT-116 [3] = test: Induction of apoptosis in human HCT-116 cells assessed as viable cells at 1 uM incubated for 24 hrs in presence of 100 nM doxorubicin by AnnexinV-FITC/PI staining based flow cytometry (reference value: 93.9%); format: functional; settings: read-out: Activity
HCT-116 [4] = test: Synergistic antiproliferative activity against human HCT-116 cells assessed as combination index at 1 uM in presence of 100 nM doxorubicin by MTT assay; format: functional
HCT-116 [5] = test: Antiproliferative activity against human HCT-116 cells assessed as inhibition of cell growth incubated for 48 hrs by MTT assay; format: functional, cell-based; settings: HCT-116, 48 h
HCT-116 [6] = test: Antiproliferative activity against human HCT-116 cells assessed as inhibition of cell growth incubated for 48 hrs in presence of 100 nM doxorubicin by MTT assay; format: functional, cell-based; settings: HCT-116, 48 h
HCT-116 [7] = test: Induction of apoptosis in human HCT-116 cells assessed as viable cells at 1 uM incubated for 24 hrs by AnnexinV-FITC/PI staining based flow cytometry (reference value: 93.9%); format: functional; settings: read-out: Activity
HCT-116 [8] = test: Disruption of mitochondrial function in human HCT-116 cells assessed as decrease in mitochondrial membrane potential by measuring proportion of cells with green fluorescence at 1 uM incubated for 24 hrs by JC-1 staining based flow cytometry (reference value: 0.566%); format: functional; parameters: scale not given: the % may be the effect or the level left
HCT-116 [9] = test: Disruption of mitochondrial function in human HCT-116 cells assessed as decrease in mitochondrial membrane potential by measuring proportion of cells with red fluorescence at 1 uM incubated for 24 hrs by JC-1 staining based flow cytometry (reference value: 99.4%); format: functional; parameters: scale not given: the % may be the effect or the level left
HCT-116 [10] = test: Induction of apoptosis in human HCT-116 cells assessed as early apoptotic cells at 1 uM incubated for 24 hrs by AnnexinV-FITC/PI staining based flow cytometry (reference value: 3.04%); format: functional
HCT-116 [11] = test: Induction of apoptosis in human HCT-116 cells assessed as late apoptotic cells at 1 uM incubated for 24 hrs by AnnexinV-FITC/PI staining based flow cytometry (reference value: 3.07%); format: functional
HCT-116 [12] = test: Induction of apoptosis in human HCT-116 cells assessed as necrotic cells at 1 uM incubated for 24 hrs by AnnexinV-FITC/PI staining based flow cytometry (reference value: 0.031%); format: functional
HCT-116 [13] = test: Induction of apoptosis in human HCT-116 cells assessed as late apoptotic cells at 1 uM incubated for 24 hrs in presence of 100 nM doxorubicin by AnnexinV-FITC/PI staining based flow cytometry (reference value: 3.07%); format: functional
HCT-116 [14] = test: Induction of apoptosis in human HCT-116 cells assessed as necrotic cells at 1 uM incubated for 24 hrs in presence of 100 nM doxorubicin by AnnexinV-FITC/PI staining based flow cytometry (reference value: 0.031%); format: functional
HCT-116 [15] = test: Induction of cell cycle arrest in human HCT-116 cells assessed as increase in accumulation of cells at […] at 1 uM incubated for 24 hrs in presence of 100 nM doxorubicin by PI staining based flow cytometry; format: functional
HCT-116 [16] = test: Induction of cell cycle arrest in human HCT-116 cells assessed as increase in accumulation of cells at G2/M phase at 1 uM incubated for 24 hrs in presence of 100 nM doxorubicin by PI staining based flow cytometry; format: functional
[17] = Lipophilicity, logP of the compound; format: physicochemical; settings: octanol/water
[18] = Kinetic solubility of the compound in phosphate-buffered solution at pH 7.4 incubated for 24 hrs by HPLC-MS/MS analysis; format: physicochemical; settings: phosphate buffer, read-out: Kinetic_solubility
[19] = Kinetic solubility of the compound in phosphate-buffered solution at pH 6.4 incubated for 24 hrs by HPLC-MS/MS analysis; format: physicochemical; settings: phosphate buffer, read-out: Kinetic_solubility
[20] = Plasma protein binding in rat assessed as free fraction; format: ADME, cell-free
[21] = Plasma protein binding in human assessed as free fraction; format: ADME, cell-free
[22] = Tmax in Sprague-Dawley rat at 5 mg/kg, po; format: ADME, organism-based; settings: in vivo
[23] = Cmax in Sprague-Dawley rat at 5 mg/kg, po; format: ADME, organism-based; parameters: dose 5 mg/kg, route po; settings: in vivo
[24] = AUC (0 to infinity) in Sprague-Dawley rat at 5 mg/kg, po; format: ADME, organism-based; parameters: time infinity, dose 5 mg/kg, route po; settings: in vivo
[25] = MRT (0 to infinity) in Sprague-Dawley rat at 5 mg/kg, po; format: ADME, organism-based; settings: in vivo
HL-60 [26] = test: Synergistic antitumor activity against human HL-60 cells xenografted in BALB/c nude mouse assessed as tumor weight at 100 mg/kg, po qd for 16 days co-administered with doxorubicin (reference value: 27.9%); format: functional; settings: HL-60, 384 h, time 16 day
HL-60 [27] = test: Synergistic antitumor activity against human HL-60 cells xenografted in BALB/c nude mouse assessed as tumor volume at 100 mg/kg, po qd for 16 days co-administered with doxorubicin (reference value: 32.2%); format: functional; settings: HL-60, 384 h, time 16 day
[28] = Toxicity in BALB/c nude mouse xenografted with human HL-60 cells assessed as effect on body weight at 100 mg/kg, po qd for 16 days; format: organism-based; settings: in vivo, 384 h, time 16 day
[29] = Toxicity in BALB/c nude mouse xenografted with human HL-60 cells assessed as effect on body weight at 100 mg/kg, po qd for 16 days co-administered with doxorubicin; format: organism-based; settings: in vivo, 384 h, time 16 day

DNA-dependent protein kinase catalytic subunit, sequence (P78527 whole entry): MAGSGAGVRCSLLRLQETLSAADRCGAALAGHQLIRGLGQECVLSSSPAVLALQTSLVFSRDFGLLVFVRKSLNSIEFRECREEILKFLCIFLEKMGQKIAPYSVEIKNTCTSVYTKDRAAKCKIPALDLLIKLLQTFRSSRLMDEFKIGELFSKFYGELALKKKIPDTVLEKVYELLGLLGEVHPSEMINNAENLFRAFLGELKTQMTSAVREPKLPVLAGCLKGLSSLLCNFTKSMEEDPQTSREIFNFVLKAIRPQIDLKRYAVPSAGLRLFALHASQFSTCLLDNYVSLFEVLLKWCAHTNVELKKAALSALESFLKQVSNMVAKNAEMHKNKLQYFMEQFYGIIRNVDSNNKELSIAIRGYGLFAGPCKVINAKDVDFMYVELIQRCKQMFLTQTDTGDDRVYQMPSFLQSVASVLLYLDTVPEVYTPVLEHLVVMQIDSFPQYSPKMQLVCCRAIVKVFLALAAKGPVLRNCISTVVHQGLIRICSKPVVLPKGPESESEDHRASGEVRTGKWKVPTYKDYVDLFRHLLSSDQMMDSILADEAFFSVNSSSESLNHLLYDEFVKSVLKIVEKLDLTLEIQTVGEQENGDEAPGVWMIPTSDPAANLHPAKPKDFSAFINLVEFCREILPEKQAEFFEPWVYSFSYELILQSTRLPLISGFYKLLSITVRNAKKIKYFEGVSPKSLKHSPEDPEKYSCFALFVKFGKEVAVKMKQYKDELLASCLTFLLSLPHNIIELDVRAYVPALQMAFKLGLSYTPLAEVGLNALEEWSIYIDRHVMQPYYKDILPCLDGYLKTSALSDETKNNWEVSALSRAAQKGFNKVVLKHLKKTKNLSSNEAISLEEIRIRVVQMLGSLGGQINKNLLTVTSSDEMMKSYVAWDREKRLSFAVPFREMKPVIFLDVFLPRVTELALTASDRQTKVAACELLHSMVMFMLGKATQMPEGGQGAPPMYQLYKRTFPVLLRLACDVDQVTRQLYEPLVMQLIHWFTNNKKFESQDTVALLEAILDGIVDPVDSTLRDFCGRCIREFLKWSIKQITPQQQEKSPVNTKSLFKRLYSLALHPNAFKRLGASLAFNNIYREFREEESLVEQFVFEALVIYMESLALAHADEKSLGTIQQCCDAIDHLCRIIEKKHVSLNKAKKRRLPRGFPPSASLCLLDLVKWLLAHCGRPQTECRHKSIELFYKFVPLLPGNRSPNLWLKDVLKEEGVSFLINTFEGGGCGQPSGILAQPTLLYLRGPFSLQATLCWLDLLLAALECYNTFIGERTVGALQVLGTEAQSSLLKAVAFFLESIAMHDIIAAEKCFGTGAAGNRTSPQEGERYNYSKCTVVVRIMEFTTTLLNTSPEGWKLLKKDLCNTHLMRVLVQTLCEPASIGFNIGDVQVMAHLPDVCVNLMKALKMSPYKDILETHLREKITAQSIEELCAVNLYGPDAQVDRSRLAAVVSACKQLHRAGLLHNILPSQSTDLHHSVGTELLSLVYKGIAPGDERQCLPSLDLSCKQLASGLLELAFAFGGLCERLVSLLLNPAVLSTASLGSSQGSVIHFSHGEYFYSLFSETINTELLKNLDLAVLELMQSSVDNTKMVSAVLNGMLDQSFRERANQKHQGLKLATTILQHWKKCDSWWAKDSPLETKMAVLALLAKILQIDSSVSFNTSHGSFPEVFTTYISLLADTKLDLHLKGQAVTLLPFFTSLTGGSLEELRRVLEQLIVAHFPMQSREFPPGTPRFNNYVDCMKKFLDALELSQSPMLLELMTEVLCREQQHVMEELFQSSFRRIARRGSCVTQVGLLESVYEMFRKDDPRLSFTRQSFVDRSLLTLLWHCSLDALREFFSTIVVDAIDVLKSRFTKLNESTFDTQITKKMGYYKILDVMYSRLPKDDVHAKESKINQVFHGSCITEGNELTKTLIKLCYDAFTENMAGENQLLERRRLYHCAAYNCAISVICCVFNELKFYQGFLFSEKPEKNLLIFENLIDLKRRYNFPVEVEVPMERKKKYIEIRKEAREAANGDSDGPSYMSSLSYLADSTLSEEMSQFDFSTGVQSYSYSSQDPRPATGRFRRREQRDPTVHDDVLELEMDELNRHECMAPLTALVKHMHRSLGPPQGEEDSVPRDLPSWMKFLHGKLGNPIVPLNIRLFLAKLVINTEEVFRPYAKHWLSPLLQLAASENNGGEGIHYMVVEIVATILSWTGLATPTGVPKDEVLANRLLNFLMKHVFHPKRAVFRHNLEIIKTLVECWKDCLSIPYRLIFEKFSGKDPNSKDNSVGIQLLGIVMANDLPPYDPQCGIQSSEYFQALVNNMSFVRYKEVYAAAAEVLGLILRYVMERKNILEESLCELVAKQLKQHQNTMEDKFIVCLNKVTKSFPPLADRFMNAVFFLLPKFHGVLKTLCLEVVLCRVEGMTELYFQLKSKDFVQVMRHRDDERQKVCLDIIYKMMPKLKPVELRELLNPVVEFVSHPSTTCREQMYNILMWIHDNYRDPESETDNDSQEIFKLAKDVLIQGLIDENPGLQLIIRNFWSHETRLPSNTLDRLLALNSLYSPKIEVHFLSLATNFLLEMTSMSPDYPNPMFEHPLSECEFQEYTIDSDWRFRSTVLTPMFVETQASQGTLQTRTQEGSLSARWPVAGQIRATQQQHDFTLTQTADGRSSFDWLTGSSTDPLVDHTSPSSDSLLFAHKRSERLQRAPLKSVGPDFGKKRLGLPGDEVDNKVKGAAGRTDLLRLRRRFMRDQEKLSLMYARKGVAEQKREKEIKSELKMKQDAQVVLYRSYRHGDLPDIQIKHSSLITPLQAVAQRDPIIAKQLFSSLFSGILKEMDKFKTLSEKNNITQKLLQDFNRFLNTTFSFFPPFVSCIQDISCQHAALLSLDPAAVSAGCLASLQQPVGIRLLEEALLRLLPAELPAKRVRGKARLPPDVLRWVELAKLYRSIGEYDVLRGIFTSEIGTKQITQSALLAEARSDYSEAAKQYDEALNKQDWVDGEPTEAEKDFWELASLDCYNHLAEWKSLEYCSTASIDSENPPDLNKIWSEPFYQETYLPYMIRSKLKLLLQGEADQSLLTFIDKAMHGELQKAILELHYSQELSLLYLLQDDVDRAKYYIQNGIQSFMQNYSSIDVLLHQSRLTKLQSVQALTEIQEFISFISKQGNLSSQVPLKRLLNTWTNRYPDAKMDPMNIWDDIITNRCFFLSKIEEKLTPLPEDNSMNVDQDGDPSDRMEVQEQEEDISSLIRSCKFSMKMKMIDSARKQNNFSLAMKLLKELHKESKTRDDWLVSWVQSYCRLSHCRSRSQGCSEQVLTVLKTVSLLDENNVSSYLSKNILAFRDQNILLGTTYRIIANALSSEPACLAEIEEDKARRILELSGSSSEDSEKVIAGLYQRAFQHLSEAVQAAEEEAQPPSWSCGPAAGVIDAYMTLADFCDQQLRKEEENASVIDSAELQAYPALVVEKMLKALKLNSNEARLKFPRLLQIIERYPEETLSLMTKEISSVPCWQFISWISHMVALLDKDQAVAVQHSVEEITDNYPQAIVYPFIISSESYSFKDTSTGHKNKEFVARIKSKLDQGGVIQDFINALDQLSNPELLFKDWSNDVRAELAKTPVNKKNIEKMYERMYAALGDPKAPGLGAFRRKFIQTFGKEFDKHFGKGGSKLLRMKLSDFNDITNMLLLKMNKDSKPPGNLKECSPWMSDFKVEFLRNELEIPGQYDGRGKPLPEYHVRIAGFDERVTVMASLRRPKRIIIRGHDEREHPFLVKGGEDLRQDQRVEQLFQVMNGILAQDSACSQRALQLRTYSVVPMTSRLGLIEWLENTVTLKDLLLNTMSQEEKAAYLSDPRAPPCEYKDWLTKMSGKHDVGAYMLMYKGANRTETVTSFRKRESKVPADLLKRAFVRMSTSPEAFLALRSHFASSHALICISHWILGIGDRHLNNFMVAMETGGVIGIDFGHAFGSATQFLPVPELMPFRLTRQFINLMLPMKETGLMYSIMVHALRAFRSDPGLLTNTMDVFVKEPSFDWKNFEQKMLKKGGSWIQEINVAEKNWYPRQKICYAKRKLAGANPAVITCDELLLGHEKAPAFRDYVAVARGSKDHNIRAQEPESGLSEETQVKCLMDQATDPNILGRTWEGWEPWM

Compound: Cc1cc2ncnn2cc1Nc1ncc2c(n1)C1(CCC1)C(=O)N2C
IC50 [1]: 21.4 nM

Compound: Cc1cc2ncnn2cc1Nc1ncc2c(n1)C1(CCOCC1)C(=O)N2C(C)C
IC50 [1]: 220 nM

Compound: Cc1cc2ncnn2cc1Nc1ncc2c(n1)n(C1CCOCC1)c(=O)n2C [AZD-7648]
Activity (HCT-116 [2]): 10.3%
viability at 1 µM (HCT-116 [3]): 82.3%
CI (HCT-116 [4]): 0.79
IC50 (HCT-116 [5]): 35300 nM
IC50 (HCT-116 [6]): 19500 nM
viability at 1 µM (HCT-116 [7]): 92.7%
Activity (HCT-116 [8]): 7.64%
Activity (HCT-116 [9]): 92.2%
Activity (HCT-116 [10]): 2.76%
Activity (HCT-116 [11]): 4.53%
Activity (HCT-116 [12]): 0.05%
Activity (HCT-116 [13]): 7.33%
Activity (HCT-116 [14]): 0.102%
Activity (HCT-116 [15]): Active
Activity (HCT-116 [16]): 64.46%
logP [17]: 1.2
solubility kinetic at 24 h [18]: 120 µg/mL (≈ 316 µM)
solubility kinetic at 24 h [19]: 101 µg/mL (≈ 266 µM)
fraction unbound [20]: 0.653
fraction unbound [21]: 0.834
Tmax [22]: 0.83 h
Cmax [23]: 1500 ng/mL
AUC(0-inf) [24]: 5240 ng·h/mL
MRT inf [25]: 2.51 h
inhibition in vivo at 100 mg/kg (HL-60 [26]): 55.3%
inhibition in vivo at 100 mg/kg (HL-60 [27]): 68.1%
Activity [28]: Non-Toxic
Activity [29]: Non-Toxic

Compound: Cc1cc2ncnn2cc1Nc1ncc2c(n1)C1(CCC(OCC(F)F)CC1)C(=O)N2C (stereo unspecified)
IC50 [1]: 16.9 nM

Compound: [2H]C([2H])([2H])N1C(=O)C2(CCOCC2)c2nc(Nc3cn4ncnc4cc3C)ncc21
IC50 [1]: 126 nM

Compound: Cc1cc2ncnn2cc1Nc1ncc2c(n1)C(C)(C)C(=O)N2C
IC50 [1]: 47.9 nM

Other lines, results leading:

IC50 [1]: 10.5 nM
Compound: Cc1cc2ncccc2cc1Nc1ncc2c(n1)C1(CCOCC1)C(=O)N2C

IC50 [1]: 6.76 nM
Compound: Cc1cc2ncnn2cc1Nc1ncc2c(n1)N(C1CCOCC1)CC(=O)N2C1CC1

IC50 [1]: 7.06 nM
Compound: Cc1cc2ncnn2cc1Nc1ncc2c(n1)N(C1CCOCC1)CC(=O)N2

IC50 [1]: 3.26 nM
Compound: Cc1cc2nccnc2cc1Nc1ncc2c(n1)N(C1CCOCC1)CC(=O)N2C

IC50 [1]: 135 nM
Compound: CCN1C(=O)C2(CCOCC2)c2nc(Nc3cn4ncnc4cc3C)ncc21

IC50 [1]: 3.37 nM
Compound: CCN1C(=O)CN(C2CCOCC2)c2nc(Nc3cn4ncnc4cc3C)ncc21

IC50 [1]: 6.9 nM
Compound: Cc1cc2ncccc2cc1Nc1ncc2c(n1)N(C1CCOCC1)CC(=O)N2C

IC50 [1]: 25.5 nM
Compound: Cc1cc2ncnn2cc1Nc1ncc2c(n1)N(C1CCOCC1)CC(=O)N2C(C)C
